# Experimental data as given in PubChem BioAssay (NCI).
#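 All cell lines were grown in 96-well plates and treated with compound for 48 hours. TGI: total growth inhibition.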 Where a SMILES comes first, the peptide text is derived from it. [ ]: non-standard residue; d: D form. The star is where a group is joined. Bn2Val = CC(C)[C@@H](C(=O)*)N(Cc1ccccc1)Cc1ccccc1; NHPiperonyl = c1cc2c(cc1CN*)OCO2; NMeV = CN[C@H](C(=O)O)C(C)C; dNMeA = CN[C@H](C)C(=O)O
# Key:
# Experiment in all cases: NCI-60 cell line screen, 48 h
# DU-145 prostate = tested on: DU-145 prostate
# SK-MEL-2 melanoma = tested on: SK-MEL-2 melanoma
# LOX IMVI melanoma = tested on: LOX IMVI melanoma
# MDA-MB-435 = tested on: MDA-MB-435
# A549 NSCLC = tested on: A549 NSCLC
# UACC-257 melanoma = tested on: UACC-257 melanoma
# SF-268 CNS = tested on: SF-268 CNS
# OVCAR-4 ovarian = tested on: OVCAR-4 ovarian
# MDA-N = tested on: MDA-N
# SF-539 CNS = tested on: SF-539 CNS
# PC-3 prostate = tested on: PC-3 prostate
# SNB-19 CNS = tested on: SNB-19 CNS
# CCRF-CEM leukemia = tested on: CCRF-CEM leukemia
# BT-549 breast = tested on: BT-549 breast
# EKVX NSCLC = tested on: EKVX NSCLC
# M14 melanoma = tested on: M14 melanoma
# CAKI-1 renal = tested on: CAKI-1 renal
# NCI-H522 lung = tested on: NCI-H522 lung
# SK-OV-3 ovarian = tested on: SK-OV-3 ovarian
# U251 CNS = tested on: U251 CNS
# NCI-H226 lung = tested on: NCI-H226 lung
# NCI-H460 lung = tested on: NCI-H460 lung
# NCI/ADR-RES ovarian = tested on: NCI/ADR-RES ovarian
# OVCAR-8 ovarian = tested on: OVCAR-8 ovarian
# MCF7 breast = tested on: MCF7 breast
# UO-31 renal = tested on: UO-31 renal
# MOLT-4 leukemia = tested on: MOLT-4 leukemia
# TK-10 renal = tested on: TK-10 renal
# 786-0 renal = tested on: 786-0 renal
# HCT-15 colon = tested on: HCT-15 colon
# SK-MEL-28 melanoma = tested on: SK-MEL-28 melanoma
# MDA-MB-231 breast = tested on: MDA-MB-231 breast
# SW-620 colon = tested on: SW-620 colon
# IGROV1 ovarian = tested on: IGROV1 ovarian
# KM12 colon = tested on: KM12 colon
# ACHN renal = tested on: ACHN renal
# HCT-116 colon = tested on: HCT-116 colon
# HS 578T breast = tested on: HS 578T breast
# NCI-H23 lung = tested on: NCI-H23 lung
# SF-295 CNS = tested on: SF-295 CNS
# HT29 colon = tested on: HT29 colon
# OVCAR-5 ovarian = tested on: OVCAR-5 ovarian
# HCC-2998 colon = tested on: HCC-2998 colon
# OVCAR-3 ovarian = tested on: OVCAR-3 ovarian
# RPMI-8226 leukemia = tested on: RPMI-8226 leukemia
# K-562 leukemia = tested on: K-562 leukemia
# HOP-62 NSCLC = tested on: HOP-62 NSCLC
# UACC-62 melanoma = tested on: UACC-62 melanoma
# HL-60(TB) leukemia = tested on: HL-60(TB) leukemia
# MALME-3M melanoma = tested on: MALME-3M melanoma
# RXF 393 renal = tested on: RXF 393 renal
# T-47D breast = tested on: T-47D breast
# COLO 205 colon = tested on: COLO 205 colon
# HOP-92 NSCLC = tested on: HOP-92 NSCLC
# SK-MEL-5 melanoma = tested on: SK-MEL-5 melanoma
# SNB-75 CNS = tested on: SNB-75 CNS
# SR leukemia = tested on: SR leukemia
# SN12C renal = tested on: SN12C renal
compound,measurement,setting,value
CC(C)[C@H](NC(=O)[C@H](C(C)C)N(Cc1ccccc1)Cc1ccccc1)C(=O)N(C)[C@H](C(=O)N1CCC[C@H]1C(=O)N(C)[C@H](C)C(=O)NCc1ccc2c(c1)OCO2)C(C)C (Bn2Val-V[NMeV]P[dNMeA]-NHPiperonyl),TGI,DU-145 prostate,> 33.2 µM
same,TGI,SK-MEL-2 melanoma,25.5 µM
same,TGI,LOX IMVI melanoma,> 100 µM
same,TGI,MDA-MB-435,> 96.4 µM
same,TGI,A549 NSCLC,> 100 µM
same,TGI,UACC-257 melanoma,> 100 µM
same,TGI,SF-268 CNS,> 74.5 µM
same,TGI,OVCAR-4 ovarian,> 100 µM
same,TGI,MDA-N,49.4 µM
same,TGI,SF-539 CNS,11.5 µM
same,TGI,PC-3 prostate,89.9 µM
same,TGI,SNB-19 CNS,> 100 µM
same,TGI,CCRF-CEM leukemia,8.72 µM
same,TGI,BT-549 breast,57.5 µM
same,TGI,EKVX NSCLC,> 100 µM
same,TGI,M14 melanoma,> 100 µM
same,TGI,CAKI-1 renal,> 100 µM
same,TGI,NCI-H522 lung,> 100 µM
same,TGI,SK-OV-3 ovarian,> 100 µM
same,TGI,U251 CNS,43 µM
same,TGI,NCI-H226 lung,> 100 µM
same,TGI,NCI-H460 lung,> 100 µM
same,TGI,NCI/ADR-RES ovarian,> 100 µM
same,TGI,OVCAR-8 ovarian,> 100 µM
same,TGI,MCF7 breast,7.55 µM
same,TGI,UO-31 renal,> 100 µM
same,TGI,MOLT-4 leukemia,> 100 µM
same,TGI,TK-10 renal,> 100 µM
same,TGI,786-0 renal,> 83.2 µM
same,TGI,HCT-15 colon,> 100 µM
same,TGI,SK-MEL-28 melanoma,> 100 µM
same,TGI,MDA-MB-231 breast,> 100 µM
same,TGI,SW-620 colon,> 100 µM
same,TGI,IGROV1 ovarian,> 100 µM
same,TGI,KM12 colon,> 100 µM
same,TGI,ACHN renal,> 100 µM
same,TGI,HCT-116 colon,23.2 µM
same,TGI,HS 578T breast,> 100 µM
same,TGI,NCI-H23 lung,> 100 µM
same,TGI,SF-295 CNS,> 100 µM
same,TGI,HT29 colon,9.04 µM
same,TGI,OVCAR-5 ovarian,23.9 µM
same,TGI,HCC-2998 colon,37.1 µM
same,TGI,OVCAR-3 ovarian,57.9 µM
same,TGI,RPMI-8226 leukemia,6.2 µM
same,TGI,K-562 leukemia,54 µM
same,TGI,HOP-62 NSCLC,> 100 µM
same,TGI,UACC-62 melanoma,> 74.2 µM
same,TGI,HL-60(TB) leukemia,2.8 µM
same,TGI,MALME-3M melanoma,> 65.3 µM
O=C1CSC(c2c[nH]c3ccccc23)N1c1cccc([N+](=O)[O-])c1 (stereo unspecified),TGI,RXF 393 renal,> 100 µM
same,TGI,DU-145 prostate,> 100 µM
same,TGI,LOX IMVI melanoma,> 100 µM
same,TGI,MDA-MB-435,> 100 µM
same,TGI,A549 NSCLC,> 100 µM
same,TGI,UACC-257 melanoma,> 100 µM
same,TGI,SF-268 CNS,> 100 µM
same,TGI,OVCAR-4 ovarian,> 100 µM
same,TGI,MDA-N,> 100 µM
same,TGI,T-47D breast,> 100 µM
same,TGI,SF-539 CNS,> 100 µM
same,TGI,PC-3 prostate,> 100 µM
same,TGI,SNB-19 CNS,> 100 µM
same,TGI,CCRF-CEM leukemia,> 100 µM
same,TGI,BT-549 breast,> 100 µM
same,TGI,COLO 205 colon,> 100 µM
same,TGI,EKVX NSCLC,> 100 µM
same,TGI,M14 melanoma,> 100 µM
same,TGI,NCI-H522 lung,> 100 µM
same,TGI,SK-OV-3 ovarian,> 100 µM
same,TGI,U251 CNS,> 100 µM
same,TGI,NCI-H460 lung,> 100 µM
same,TGI,OVCAR-8 ovarian,> 100 µM
same,TGI,MCF7 breast,> 100 µM
same,TGI,UO-31 renal,> 100 µM
same,TGI,MOLT-4 leukemia,> 100 µM
same,TGI,TK-10 renal,> 100 µM
same,TGI,786-0 renal,> 100 µM
same,TGI,HCT-15 colon,> 100 µM
same,TGI,SK-MEL-28 melanoma,> 100 µM
same,TGI,MDA-MB-231 breast,> 100 µM
same,TGI,SW-620 colon,> 100 µM
same,TGI,IGROV1 ovarian,> 100 µM
same,TGI,KM12 colon,> 100 µM
same,TGI,HCT-116 colon,> 100 µM
same,TGI,HOP-92 NSCLC,> 100 µM
same,TGI,NCI-H23 lung,> 100 µM
same,TGI,SF-295 CNS,> 100 µM
same,TGI,HT29 colon,> 100 µM
same,TGI,OVCAR-5 ovarian,> 100 µM
same,TGI,SK-MEL-5 melanoma,> 100 µM
same,TGI,HCC-2998 colon,> 100 µM
same,TGI,OVCAR-3 ovarian,> 100 µM
same,TGI,RPMI-8226 leukemia,> 100 µM
same,TGI,SNB-75 CNS,> 100 µM
same,TGI,K-562 leukemia,> 100 µM
same,TGI,HOP-62 NSCLC,> 100 µM
same,TGI,UACC-62 melanoma,> 100 µM
same,TGI,HL-60(TB) leukemia,> 100 µM
same,TGI,SR leukemia,> 100 µM
same,TGI,SN12C renal,> 100 µM
